Where two headings read alike, the source gives them in different places.
What was measured:
[1] = target: BTK enzyme (recombinant full-length BTK, hBTK) (Homo sapiens (Human), UniProt Q06187); experiment: BTK enzymatic activity LANCE TR-FRET assay; assay type: biochemical; conditions: 50 pM hBTK, 25 μM ATP, 2 μM biotin-A5-peptide; compound range 1 μM to 0.017 nM; read-out: BTK binding IC50
[2] = system: adenosine uptake into HeLa cells; experiment: [3H]Adenosine uptake assay in HeLa cells; assay type: cell-based; conditions: compound range 10 μM to 0.032 nM
Method in brief: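 IC50 came from a 4-parameter fit of counts per second over a ten-point, 1:3 titration (final 10 µM down to […]). Compound was applied 30 min at ambient temperature in HBSS/5% FBS before a 500 nM [3H]adenosine solution was added; uptake ran 60 min, read by Cytostar-T proximity scintillation.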

[3] = Homo sapiens, HeLa, [3H]adenosine accumulation in HeLa cells, read-out: ADU inhibition IC50
[4] = [3H]adenosine accumulation in HeLa cells, read-out: ADU inhibition IC50
[5] = Homo sapiens, HeLa, read-out: ADU inhibition IC50 (nM), [3H]adenosine accumulation in HeLa cells

Chain of BTK enzyme (recombinant full-length BTK, hBTK) (Q06187 whole entry): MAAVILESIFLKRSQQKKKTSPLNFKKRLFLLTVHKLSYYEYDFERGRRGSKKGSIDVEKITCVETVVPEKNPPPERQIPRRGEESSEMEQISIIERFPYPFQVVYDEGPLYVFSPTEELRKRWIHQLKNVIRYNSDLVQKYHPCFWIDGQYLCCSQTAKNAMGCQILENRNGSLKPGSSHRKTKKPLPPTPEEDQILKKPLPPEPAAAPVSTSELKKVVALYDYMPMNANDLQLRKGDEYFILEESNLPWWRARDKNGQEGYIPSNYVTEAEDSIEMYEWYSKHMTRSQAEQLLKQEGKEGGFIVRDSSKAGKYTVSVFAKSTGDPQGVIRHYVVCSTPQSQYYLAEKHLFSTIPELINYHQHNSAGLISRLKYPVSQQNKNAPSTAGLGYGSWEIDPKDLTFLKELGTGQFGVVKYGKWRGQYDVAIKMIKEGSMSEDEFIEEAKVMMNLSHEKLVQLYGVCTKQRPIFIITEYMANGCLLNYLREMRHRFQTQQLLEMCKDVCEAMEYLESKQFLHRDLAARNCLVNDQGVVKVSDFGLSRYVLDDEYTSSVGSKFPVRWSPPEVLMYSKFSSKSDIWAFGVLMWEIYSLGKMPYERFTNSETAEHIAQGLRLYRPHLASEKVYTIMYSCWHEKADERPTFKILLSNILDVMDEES

Compound	IC50 [1] [µM]	IC50 [2, 3] [nM]	IC50 [2, 4] [nM]	IC50 [2, 5] [nM]
Nc1nccn2c([C@@H]3CC[C@H]4CCC(=O)N4C3)nc(-c3ccc(C(O)c4cc(C(F)(F)F)ccc4F)cc3)c12 (stereo partly drawn) [Example 125, (6R,8aS)-6-(8-amino-1-(4-{[2-fluoro-5-(trifluoromethyl)phenyl] (hydroxy)methyl}phenyl)imidazo[1,5-a]pyrazin-3-yl]hexahydroindolizin-3(2H)-one]	0.824	1180	–	–
Cc1ccc(C(F)(F)F)cc1C(O)c1ccc(-c2nc([C@@H]3CC[C@H]4CCC(=O)N4C3)n3ccnc(N)c23)cc1 (stereo partly drawn) [Example 127, (6R,8aS)-6-[8-amino-1-(4-{hydroxy[2-methyl-5-(trifluoromethyl)phenyl]methyl}phenyl)imidazo [1,5-a]pyrazin-3-yl]hexahydroindolizin-3(2H)-one]	0.459	2140	–	–
Nc1nccn2c([C@@H]3CC[C@H]4CCC(=O)N4C3)nc(-c3ccc(C(O)c4cc(C(F)(F)F)ccc4F)cc3)c12 (stereo partly drawn) [Example 128]	0.0124	–	1470	–
Cc1ccc(C(F)(F)F)cc1C(O)c1ccc(-c2nc([C@@H]3CC[C@H]4CCC(=O)N4C3)n3ccnc(N)c23)cc1 (stereo partly drawn) [Example 130, (6R,8aS)-6-[8-amino-1-(4-{hydroxy[2-methyl-5-(trifluoromethyl)phenyl]methyl}phenyl)imidazo [1,5-a]pyrazin-3-yl]hexahydroindolizin-3(2H)-one]	0.0127	–	1440	–
C[C@](O)(c1ccc(-c2nc([C@@H]3CC[C@H]4CCC(=O)N4C3)n3ccnc(N)c23)cc1)c1cncc(C(F)(F)F)c1 [Example 135, (6R,8aS)-6-[8-amino-1-(4-{(1S)-1-hydroxy-1-[5-(trifluoromethyl)pyridin-3-yl]ethyl}phenyl)imidazo [1,5-a]pyrazin-3-yl]hexahydroindolizin-3(2H)-one]	1	973	–	–
C[C@@](O)(c1ccc(-c2nc([C@@H]3CC[C@H]4CCC(=O)N4C3)n3ccnc(N)c23)cc1)c1cncc(C(F)(F)F)c1 [Example 136, (6R,8aS)-6-[8-amino-1-(4-{(1R)-1-hydroxy-1-[5-(trifluoromethyl)pyridin-3-yl]ethyl}phenyl)imidazo [1,5-a]pyrazin-3-yl]hexahydroindolizin-3(2H)-one]	0.0876	4620	–	–
C[C@](O)(c1ccc(-c2nc([C@@H]3CC[C@H]4CCC(=O)N4C3)n3ccnc(N)c23)cc1)c1cccc(C(F)(F)F)n1 [Example 137, (6R,8aS)-6-[8-amino-1-(4-{(1S)-1-hydroxy-1-[6-(trifluoromethyl)pyridin-2-yl]ethyl}phenyl)imidazo [1,5-a]pyrazin-3-yl]hexahydroindolizin-3(2H)-one]	0.877	865	–	–
CC(F)(F)c1cccc([C@@](C)(O)c2ccc(-c3nc([C@@H]4CC[C@H]5CCC(=O)N5C4)n4c(Cl)cnc(N)c34)cc2)c1 [Example 139, (6R,8aS)-6-[8-amino-5-chloro-1-(4-{(1S)-1-[3-(1,1-difluoroethyl)phenyl]-1-hydroxyethyl}phenyl)imidazo[1,5-a]pyrazin-3-yl]hexahydroindolizin-3(2H)-one]	0.0249	–	–	449
CC(F)(F)c1cccc([C@](C)(O)c2ccc(-c3nc([C@@H]4CC[C@H]5CCC(=O)N5C4)n4c(Cl)cnc(N)c34)cc2)c1 [Example 140]	0.00022	–	–	1200
COc1cc([C@@](C)(O)c2cccc(C(F)(F)F)c2)ccc1-c1nc([C@@H]2CC[C@H]3CCC(=O)N3C2)n2ccnc(N)c12 [Example 141, (6R,8aS)-6-[8-amino-1-(4-{(1S)-1-hydroxy-1-[3-(trifluoromethyl)phenyl]ethyl}-2-methoxyphenyl)imidazo [1,5-a]pyrazin-3-yl]hexahydroindolizin-3(2H)-one]	0.0938	1980	–	–
COc1cc([C@](C)(O)c2cccc(C(F)(F)F)c2)ccc1-c1nc([C@@H]2CC[C@H]3CCC(=O)N3C2)n2ccnc(N)c12 [Example 142, (6R,8aS)-6-[8-amino-1-(4-{(1R)-1-hydroxy-1-[3-(trifluoromethyl)phenyl]ethyl}-2-methoxyphenyl)imidazo [1,5-a]pyrazin-3-yl]hexahydroindolizin-3(2H)-one]	0.002	7160	–	–
CC(O)(c1ccc(-c2nc([C@@H]3CC[C@H]4CCC(=O)N4C3)n3ccnc(N)c23)cc1)C1CC2CCC1CC2 (stereo partly drawn) [Example 143, (6R,8aS)-6-{8-amino-1-[4-(1-bicyclo[2.2.2]oct-2-yl-1-hydroxyethyl)phenyl]imidazo[1,5-a]pyrazin-3-yl}hexahydroindolizin-3(2H)-one]	0.9	–	839	–

Further lines, with some results ahead:

IC50 [1] [µM]	IC50 [2, 3] [nM]	IC50 [2, 4] [nM]	Compound	IC50 [2, 5] [nM]
0.00018	1940	–	C[C@@](O)(c1ccc(-c2nc([C@@H]3CC[C@H]4CCC(=O)N4C3)n3c(Cl)cnc(N)c23)cc1)c1cccc(CC(F)(F)F)c1 [Example 121, (6R,8aS)-6-[8-amino-5-chloro-1-(4-{(1R)-1-hydroxy-1-[3-(2,2,2-trifluoroethyl)phenyl]ethyl}phenyl)imidazo[1,5-a]pyrazin-3-yl]hexahydroindolizin-3(2H)-one]	–
0.0027	966	–	C[C@](O)(c1ccc(-c2nc([C@@H]3CC[C@H]4CCC(=O)N4C3)n3c(Cl)cnc(N)c23)cc1)c1cccc(CC(F)(F)F)c1 [Example 122, (6R,8aS)-6-[8-amino-5-chloro-1-(4-{(1S)-1-hydroxy-1-(3-(2,2,2-trifluoroethyl)phenyl]ethyl}phenyl)imidazo[1,5-a]pyrazin-3-yl]hexahydroindolizin-3(2H)-one]	–
0.117	945	–	CC(C)(c1cccc([C@@](C)(O)c2ccc(-c3nc([C@@H]4CC[C@H]5CCC(=O)N5C4)n4c(Cl)cnc(N)c34)cc2)c1)C(F)(F)F [Example 123, (6R,8aS)-6-[8-amino-5-chloro-1-(4-{(1S)-1-hydroxy-1-[3-(2,2,2-trifluoro-1,1-dimethylethyl)phenyl]ethyl}phenyl)imidazo[1,5-a]pyrazin-3-yl]hexahydroindolizin-3(2H)-one]	–
0.0012	1450	–	CC(C)(c1cccc([C@](C)(O)c2ccc(-c3nc([C@@H]4CC[C@H]5CCC(=O)N5C4)n4c(Cl)cnc(N)c34)cc2)c1)C(F)(F)F [Example 124, (6R,8aS)-6-[8-amino-5-chloro-1-(4-{(1R)-1-hydroxy-1-[3-(2,2,2-trifluoro-1,1-dimethylethyl)phenyl]ethyl}phenyl)imidazo[1,5-a]pyrazin-3-yl]hexahydroindolizin-3(2H)-one]	–
1	1070	–	Nc1ncc(Cl)n2c([C@@H]3CC[C@H]4CCC(=O)N4C3)nc(-c3ccc(C(O)c4cc(C(F)(F)F)ccc4F)cc3)c12 (stereo partly drawn) [Example 126]	–
0.0122	–	1660	Nc1ncc(Cl)n2c([C@@H]3CC[C@H]4CCC(=O)N4C3)nc(-c3ccc(C(O)c4cc(C(F)(F)F)ccc4F)cc3)c12 (stereo partly drawn) [Example 129, (6R,8aS)-6-[8-amino-5-chloro-1-(4-{[2-fluoro-5-(trifluoromethyl)phenyl] (hydroxy)methyl}phenyl)imidazo[1,5-a]pyrazin-3-yl]hexahydroindolizin-3(2H)-one]	–
0.0644	436	–	CC(F)(F)c1cccc([C@@](C)(O)c2ccc(-c3nc([C@@H]4CC[C@H]5CCC(=O)N5C4)n4ccnc(N)c34)cc2)c1 [Example 131, (6R,8aS)-6-[8-amino-1-(4-{(1S)-1-[3-(1,1-difluoroethyl)phenyl]-1-hydroxyethyl}phenyl)imidazo[1,5-a]pyrazin-3-yl]hexahydroindolizin-3(2H)-one]	–
0.0003	2950	–	CC(F)(F)c1cccc([C@](C)(O)c2ccc(-c3nc([C@@H]4CC[C@H]5CCC(=O)N5C4)n4ccnc(N)c34)cc2)c1 [Example 132, (6R,8aS)-6-[8-amino-1-(4-{(1R)-1-[3-(1,1-difluoroethyl)phenyl]-1-hydroxyethyl}phenyl)imidazo[1,5-a]pyrazin-3-yl]hexahydroindolizin-3(2H)-one]	–
0.118	460	–	C[C@](O)(c1ccc(-c2nc([C@@H]3CC[C@H]4CCC(=O)N4C3)n3c(Cl)cnc(N)c23)cc1)c1cccc(C(F)F)c1 [Example 133, (6R,8aS)-6-[8-amino-5-chloro-1-(4-{(1S)-1-[3-(difluoromethyl)phenyl]-1-hydroxyethyl}phenyl)imidazo[1,5-a]pyrazin-3-yl]hexahydroindolizin-3(2H)-one]	–
0.00014	2330	–	C[C@@](O)(c1ccc(-c2nc([C@@H]3CC[C@H]4CCC(=O)N4C3)n3c(Cl)cnc(N)c23)cc1)c1cccc(C(F)F)c1 [Example 134, (6R,8aS)-6-[8-amino-5-chloro-1-(4-{(1R)-1-[3-(difluoromethyl)phenyl]-1-hydroxyethyl}phenyl)imidazo[1,5-a]|pyrazin-3-yl]hexahydroindolizin-3(2H)-one]	–
0.025	4760	–	C[C@@](O)(c1ccc(-c2nc([C@@H]3CC[C@H]4CCC(=O)N4C3)n3ccnc(N)c23)cc1)c1cccc(C(F)(F)F)n1 [Example 138, (6R,8aS)-6-[8-amino-1-(4-{(1R)-1-hydroxy-1-[6-(trifluoromethyl)pyridin-2-yl]ethyl}phenyl)imidazo [1,5-a]pyrazin-3-yl]hexahydroindolizin-3(2H)-one]	–
0.0676	–	985	CC(O)(c1ccc(-c2nc([C@@H]3CC[C@H]4CCC(=O)N4C3)n3ccnc(N)c23)cc1)c1cccc(OC(F)F)c1 (stereo partly drawn) [Example 144, (6R,8aS)-6-[8-amino-1-(4-{1-[3-(difluoromethoxy)phenyl]-1-hydroxyethyl}phenyl)imidazo[1,5-a]pyrazin-3-yl]hexahydroindolizin-3(2H)-one]	–

— patent US10214546B2, “Btk inhibitors” (MERCK SHARP & DOHME CORP., priority 2014, dated 2019)
